Data published in article PMC11432087, “Hydrogen Sulfide-Releasing Carbonic Anhydrase Inhibitors Effectively Suppress Cancer Cell Growth” (International Journal of Molecular Sciences, 2024).
Where two headings read alike, the source gives them in different places.

Key:
hCA I = conditions: stopped-flow CO2 hydrase assay, mean of three assays; cited from earlier work
[1] = compound 150 µM, rat liver homogenate, 37 °C; cited from earlier work
hCA XII [2] = assay: Stopped-flow CO2 hydrase inhibition assay, hCA XII; assay type: biochemical, human; conditions: ratio of KIs
Method: (§1) An Applied Photophysics stopped-flow instrument (Applied Photophysics Ltd, Leatherhead, UK) was used for assaying the CA-catalyzed CO2 hydration activity. Phenol red (at a concentration of 0.2 mM) was used as an indicator, working at the absorbance maximum of 557 nm, with 20 mM Hepes (pH 7.5) as a buffer and 20 mM Na2SO4 for maintaining constant the ionic strength, following the initial rates of the CA-catalyzed CO2 hydration reaction for a period of 10−100 s. The CO2 concentrations ranged from 1.7 to 17 mM for the determination of the kinetic parameters and inhibition constants. For each inhibitor, at least six traces of the initial 5−10% of the reaction were used for determining the initial velocity. The uncatalyzed rates were determined in the same manner and subtracted from the total observed rates. Stock solutions of inhibitor (0.1 mM) were prepared in distilled−deionized water and dilutions up to 0.01 nM were made thereafter with the assay buffer. Inhibitor and enzyme solutions were preincubated together for 15 min at room temperature before the assay to allow for the formation of the E−I complex. The inhibition constants were obtained by nonlinear least-squares methods using Prism 7 (GraphPad Software, La Jolla, CA, USA) and the Cheng−Prusoff equation and represent the mean of at least three different determinations. The enzyme concentrations were in the range of 3–11 nM. All hCA isoforms were recombinant ones obtained in-house.

hCA II = conditions: stopped-flow CO2 hydrase assay, mean of three assays; cited from earlier work
hCA XII [3] = conditions: stopped-flow CO2 hydrase assay, mean of three assays; cited from earlier work
hCA IV [4] = conditions: stopped-flow CO2 hydrase assay, mean of three assays; cited from earlier work
hCA IX [5] = conditions: stopped-flow CO2 hydrase assay, mean of three assays; cited from earlier work
HCT-116 = assay: MTT antiproliferative assay, HCT-116 (normoxia and CoCl2-induced hypoxia); assay type: cell-based, human; conditions: HCT-116; for IC50: Homo sapiens, MTT, 72 h
Method: (§2) These cell lines were cultured as monolayers in Dulbecco’s Modified Eagle’s Medium (DMEM) supplemented with 10% FBS, 2 mM l-glutamine, 100 U/mL penicillin, and 100 µg/mL streptomycin sulfate. […] The cells were sub-cultured using trypsin/EDTA solution, counted with a hemocytometer, and plated on 96-well plates (5000 cells/well), allowing them to form a semi-confluent monolayer overnight. […] DMSO (100 µL/well) was then added to dissolve the formazan crystals with shaking for 10 min, after which the absorb absorbance was read at 590 nm against no-cell blanks using a FLuo Star Optima microplate reader (BMG technologies, Ortenberg, Germany). Cell proliferation was calculated by comparing the OD values of the DMSO control wells with those of the samples, represented as % proliferation relative to the control.

hCA IX [6] = assay: Stopped-flow CO2 hydrase inhibition assay, hCA IX; assay type: biochemical, human; conditions: ratio of KIs
Method: as §1

A549 = assay: MTT antiproliferative assay, A549; assay type: cell-based; conditions: Homo sapiens, normoxic conditions, 72 h
Method: The human triple-negative breast cancer cell line (MDA-MB-231), colon cancer cell line (HCT-116), and lung cancer cell line (A549) used in this study were obtained from the American Type Culture Collection (ATCC). These cell lines were cultured as monolayers in Dulbecco’s Modified Eagle’s Medium (DMEM) supplemented with 10% FBS, 2 mM l-glutamine, 100 U/mL penicillin, and 100 µg/mL streptomycin sulfate. […] The cells were sub-cultured using trypsin/EDTA solution, counted with a hemocytometer, and plated on 96-well plates (5000 cells/well), allowing them to form a semi-confluent monolayer overnight. […]. DMSO (100 µL/well) was then added to dissolve the formazan crystals with shaking for 10 min, after which the absorb absorbance was read at 590 nm against no-cell blanks using a FLuo Star Optima microplate reader (BMG technologies, Ortenberg, Germany). Cell proliferation was calculated by comparing the OD values of the DMSO control wells with those of the samples, represented as % proliferation relative to the control.

hCA IV [7] = assay: Stopped-flow CO2 hydrase inhibition assay, hCA IV; assay type: biochemical, human; conditions: ratio of KIs
Method: as §1

MDA-MB-231 = assay: MTT antiproliferative assay, MDA-MB-231; assay type: cell-based; conditions: Homo sapiens, normoxic conditions, 72 h
Method: as §2

[8] = Spectrophotometric methylene blue H2S release in phosphate buffer with or without thiols; conditions: 37 °C, with or without L-cysteine or glutathione
[9] = chemically induced hypoxia with CoCl2·6H2O, read-out: IC50 HCT-116 (Hypoxia)
[10] = normoxic conditions, read-out: IC50 HCT-116 (Normoxia)

hCA II/hCA XII selectivity ratio (hCA XII [2]) | IC50 Normoxia / IC50 Hypoxia (HCT-116) | IC50 (HCT-116; [9]) [µM] | IC50 (HCT-116; [10]) [µM] | hCA II/hCA IX selectivity ratio (hCA IX [6]) | IC50 (A549) [µM] | hCA II/hCA IV selectivity ratio (hCA IV [7]) | IC50 (MDA-MB-231) [µM] | SMILES | Ki (hCA I) [µM] | H2S release half-life t/2 [1] [min] | Ki (hCA II) [µM] | Ki (hCA XII [3]) [µM] | Ki (hCA IV [4]) [µM] | Ki (hCA IX [5]) [µM] | Time of peak H2S release [1] [min] | H2S release in phosphate buffer [8]
1148 | 0.8 | 12.7 ± 0.25 | 10.1 ± 0.66 | 209 | 60.9 ± 2.17 | 29.3 | 3.25 ± 0.09 | CSc1ccc(CN(CCc2ccc(S(N)(=O)=O)cc2)C(=O)c2ccc(-c3cssc3=S)cc2)cc1 [Compound 29] | 7.21 | 4.6 | 9.65 | 0.0084 | 0.404 | 0.0462 | – | –
284 | 0.6 | 11.4 ± 0.22 | 6.62 ± 0.21 | 192 | 23.7 ± 1.61 | 104 | 6.31 ± 0.22 | NS(=O)(=O)c1ccc(CCN(Cc2ccc(Br)cc2)C(=O)c2ccc(-c3cssc3=S)cc2)cc1 [Compound 22] | 7.7 | – | 3.66 | 0.0129 | – | 0.0191 | – | –
– | – | – | – | – | – | – | – | O=C(O)c1ccc(-c2cssc2=S)cc1 [Compound 3] | – | 3.1 | – | – | – | – | 20 | minimal H2S release
